Test results reported in patent publication US8080417B2, “Methods of ex vivo hematopoietic stem cell expansion by co-culture with mesenchymal cells” (priority 2004, dated 2011).

Assays:
[1] = cited from earlier work
[2] = tested on: hematopoietic stem cells (from bone marrow) co-cultured with mesenchymal cells; experiment: Long-term Mesenchymal-MNC co-culture (21 days +/- Nicotinamide, then 5 weeks cytokines only), assessed at 8 weeks; type: cell-based, human
Protocol: Assay for Colony Forming Units (CFU)—Cells were cloned in semi-solid, methylcellulose-containing medium supplemented with 2 IU/mL erythropoietin (Eprex, Cilag AG Int., Switzerland), stem cell factor and IL-3, both at 20 ng/mL, G-CSF and GM-CSF, both at 10 ng/mL (all from Pepro Tech, Rocky Hill, N.J.). Cultures were incubated for 14 days at 37° C. in humidified atmosphere of 5% CO2 in air.
In order to determine the long-term effects of modulators of cell fate on the long-term engraftment potential of hematopoietic stem cells, CFUc, CD34+ and CD34+/CD38− cells were assessed in co-cultured cells at 8 weeks (5 weeks after removal of nicotinamide from the medium).
The mononuclear cell fraction, prepared as described above, was expanded in co-culture with mesenchymal cells in medium supplemented with cytokines and 5 mM nicotinamide, as described hereinabove, for 21 days. After 21 days, the medium was replaced with medium supplemented with cytokines only, and expansion in co-cultures continued for another 5 weeks. At 8 weeks, the expanded cells were assessed for hematopoietic stem cell markers (CD34+ and CD34+/CD38−), and for engraftment potential (CFUc), as described hereinabove.

[3] = tested on: CD34+/CXCR4+ cells in hematopoietic stem cells co-cultured with mesenchymal cells; experiment: CXCR4 in Mesenchymal-MNC co-culture at 21 days (CD34/CXCR4 double staining); type: cell-based, human; details: for Number of CD34+CXCR4+ cells: 21 days, co-culture + cytokines + Nicotinamide 5 mM; for % Increase of CD34+CXCR4+ cells: vs co-culture + cytokines without nicotinamide
From the text: Induction of CXCR4 expression in hematopoietic stem cells results in increased sensitivity to lower levels of SDF-1, increased migration of the cells to SDF-1, improved proliferation and survival of the hematopoietic stem cells in-vitro and in-vivo, and improved engraftment potential of the induced cells. Similarly, it has been shown that blockage of CXCR4 with specific antibodies prevents engraftment of hematopoietic stem cells (Brenner, et al Stem Cells 2004; 22:1128-33; Kahn et al, Blood, 2004; 103:2942-49; Peled et al, Science 1999; 283:845-48). In order to investigate the effect of modulators of cell fate on CXCR4 expression in hematopoietic stem cells in co-culture with mesenchymal cells, the population of CD34+/CXCR4+ cell in co-cultured cells was detected and quantified by double staining with PE labeled CD34 and FITC labeled CXCR4. […] This enhanced CXCR4 expression contributes to the enhanced engraftment potential of the expanded, undifferentiated hematopoietic stem cells.

[4] = tested on: hematopoietic stem cells (mononuclear cells co-cultured with mesenchymal cells); experiment: Assay for Colony Forming Units (CFU) on 21-day mesenchymal-MNC co-culture; type: cell-based, human; details: Table 3 experiment; 21 days; Nicotinamide 5 mM
From the text: (§1) Mesenchymal hematopoietic co-cultures: Mesenchymal cultures were established as described above. After reaching confluence, the mesenchymal medium was discarded and replaced with fresh, hematopoietic supportive medium containing early acting or early and late acting cytokines, and hematopoietic cells selected from; cord blood, bone marrow, placenta or peripheral blood mononuclear cells or purified progenitor cells (CD34+ or CD133+ cells), with or without a modulator of cell fate. Mononuclear or purified stem and/or progenitor cells were isolated and prepared for ex-vivo culture as previously described (see, above, or, for example, PCT IL05/000753). At different intervals the non-adherent cells were harvested, analyzed for hematopoietic potential by functional analysis (clonogenic assay, CFU, etc), and re-cultured in a stroma-free medium. The stromal layer was then re-supplemented with fresh hematopoietic supportive medium (medium including 10% FCS, SCF, TPO, FLT3, and IL6). This process was repeated several times during two to six weeks co-culture duration (as on day 10, day 14, etc).
Assay for Colony Forming Units (CFU)—Cells were cloned in semi-solid, methylcellulose-containing medium supplemented with 2 IU/mL erythropoietin (Eprex, Cilag AG Int., Switzerland), stem cell factor and IL-3, both at 20 ng/mL, G-CSF and GM-CSF, both at 10 ng/mL (all from Pepro Tech, Rocky Hill, N.J.). […]

[5] = tested on: hematopoietic stem cells (mononuclear cells co-cultured with mesenchymal cells); experiment: Mesenchymal-MNC co-culture at 21 days +/- Nicotinamide 5 mM: cell counts and surface markers; type: cell-based, human
From the text: Isolation of mesenchymal cells: Mononuclear cells containing mesenchymal cells from bone marrow were obtained from a […] prepared by negative immuno-depletion of CD3, CD14, CD19, CD38, CD66b, and glycophorin-A positive cells using a commercially available kit (RosetteSep®, StemCell Technologies, Vancouver, BC, Canada), as per manufacturer's instructions. […] Blood 90 Suppl. 1 347b, 1997 (abst)]. The immuno-depleted cells were harvested, and then either further separated by layering on a Ficoll-Paque (Amersham-Pharmacia, Piscataway, N.J., USA) density gradient column (1.077 g/cm^3) and centrifuged at 400×g for 30 minutes, or cultured without further separation. The collected cells were plated in T75 non-coated tissue culture flasks (Nunc) at a concentration of 2×10^5 cells/ml, in expansion medium containing: low glucose DMEM and 20% Fetal Bovine Serum (FBS, Hyclone, Logan, Utah, USA) supplemented with or without 10 ng/ml bFGF (Pepro Tech Inc, Rocky Hill N.J.), 0.05 mg/ml gentamicin (Sigma Inc., St. Louis, Mo.) and 2 mM L-glutamine (Biological Industries, Israel). Selected cells were allowed to adhere for 3-4 days and non-adherent cells were washed out with medium changes. Some experiments were initiated as well with the entire MNC fraction.
Maintenance and expansion of mesenchymal cells: When adherent mesenchymal cells reached approximately 80-90% confluence, they were detached with 0.25% trypsin-EDTA (Sigma, Inc. St Louis, Mo.), washed twice in DMEM and 20% Fetal Bovine Serum, with centrifugation, 400 g, 5 min., and re-plated at a 1:2 to 1:1000 dilution under the same culture conditions.
as §1
Immunophenotyping: At different time points the cells were detached with 1 mM EDTA (15′, 37° C.). The detached cells were washed with a PBS solution containing 1% BSA, and stained (at 4° C. for 30 min) with either fluorescein isothiocyanate (FITC) or phycoerythrin (PE)-conjugated antibodies: mesenchymal markers 105 PE, 105 FITC (Serotec), 73 PE, and 49b PE, and other, non-mesenchymal markers such as 45 FITC, 14 FITC, HLA-DR FITC (BD Biosciences Pharmngen), 34 PE (Dako, Carpenteria, Calif., USA), HLA class1 PE, (BD Biosciences Pharmingen, San Diego Calif.). The cells were then washed in the above buffer and analyzed using a FACScalibur® flow cytometer (Becton Dickinson and Co, San Jose, Calif., USA). Cells were passed at a rate of about 1000 cells/second, using saline as the sheath fluid. A 488 nm argon laser beam served as the light source for excitation. Emission of ten thousand cells was measured using logarithmic amplification and calculated using the cellQuest software.

[6] = 21 days Nicotinamide 5 mM then 5 weeks cytokines only
[7] = Table 1 experiment, 21 days, Nicotinamide 5 mM
[8] = Table 2 experiment, 21 days, Nicotinamide 5 mM
[9] = Table 3 experiment, 21 days, Nicotinamide 5 mM
[10] = Table 4 experiment, 21 days, Nicotinamide 5 mM

## O=c1cc(N2CCOCC2)oc2c(-c3ccccc3)cccc12 [LY294002]
[1]
  stability in tissue culture medium: very stable

## NC(=O)c1cccnc1 [Nicotinamide, nicotinamide]
[2]; [6]
  CD34+ cells (cumulative): 264 × 10^6
  CD34+/CD38− (%): 6.3%
  CFUc (cumulative): 28 × 10^6
[2]; vs co-culture + cytokines
  Fold Increase (%) of CD34+ cells (cumulative): 235%
  Fold Increase (%) of CD34+/CD38− (%): 1050%
  Fold Increase (%) of CFUc (cumulative): 215%
[3]; Exp 1
  Number of CD34+CXCR4+ cells: 65 × 10^4
  % Increase of CD34+CXCR4+ cells: 80%
[3]; Exp 2
  Number of CD34+CXCR4+ cells: 200 × 10^4
  % Increase of CD34+CXCR4+ cells: 33%
[4]
  CFU (×10^3): 4331 ×10^3
[5]; [7]
  CD34+CD38− (×10^4): 304 ×10^4
  CD34+Lin− (×10^4): 25 ×10^4
  TNC × 10^6: 309 × 10^6
[5]; [8]
  CD34+CD38− (×10^4): 1238 ×10^4
  CD34+Lin− (×10^4): 689 ×10^4
  TNC × 10^6: 309 × 10^6
[5]; [9]
  CD34+ (×10^4): 1553 ×10^4
  CD34+/TNC: 5.3%
  CD34+CD38− (×10^4): 82 ×10^4
  TNC × 10^6: 292 × 10^6
[5]; Table 3 experiment, 21 days, Nicotinamide 5 mM, listed as nicotinamide
  CD34+/TNC: 5.3%
[5]; [10]
  CD34+ (×10^4): 216 ×10^4
  CD34+/TNC: 1.5%
  CD34+CD38− (×10^4): 63 ×10^4
  CD34+Lin− (×10^4): 1.54 ×10^4
  TNC × 10^6: 144 × 10^6
[5]; Table 4 experiment, 21 days, Nicotinamide 5 mM, listed as nicotinamide
  CD34+/TNC: 1.5%
[5]; Tables 3 and 4, 21 days, Nicotinamide 5 mM
  greater expansion of stem cells (CD34+) relative to total nucleated cells, compared with cocultures without nicotinamide: ≤ 2.3 times
[5]; with nicotinamide, in some cases, Tables 1-5
  increase of the proportion of CD34+/38− cells and CD34+/Lin− cells in the cultures: > 10 fold
